Literature values in patent US20250215497A1, “IL-8, IL-6, IL-1 Beta and TET2 and DNMT3A in Atherosclerosis” (The Brigham and Women’s Hospital, Inc., priority 2017, published 2025).

Key:
IL-6 = settings: patients with rheumatoid arthritis, low-dose methotrexate
IL-1β = settings: patients with rheumatoid arthritis, low-dose methotrexate (for example from 15 to 20 mg/week)

Question: Which results are given for CN(Cc1cnc2nc(N)nc(N)c2n1)c1ccc(C(=O)N[C@@H](CCC(=O)O)C(=O)O)cc1 [methotrexate]?
Answer: effect on IL-6 levels (IL-6): improve IL-6 levels; effect on IL-1β levels (IL-1β): improve IL-1β levels
